The record followed here is ChEMBL document CHEMBL4421717, “Antagonists and agonists of bitter taste receptors and uses thereof” (2012).

The source made the active and inactive calls. No cut-off for these calls is given here.

Assay type in all cases: functional, cell-based
Assay [1] addresses Taste receptor type 2 member 5 (Homo sapiens) (UniProt Q9NYW4). In words: Activity at recombinant human N-terminal rat ST3 receptor-fused TAS2R5 expressed in HEK293T cells co-expressing Galpha16gust44 assessed as increase in denatonium saccharide-induced intracellular calcium level at 100 uM by FLIPR assay. (A change in cytosolic calcium serves as a functional read-out for many receptors and channels.)

For assay [2], the target named is Taste receptor type 2 member 7 (Homo sapiens) (UniProt Q9NYW3). Briefly: Agonist activity at recombinant human N-terminal rat ST3 receptor-fused TAS2R7 expressed in HEK293T cells co-expressing Galpha16gust44 assessed as effect on intracellular calcium level at 100 uM by FLIPR assay.
The target of assay [3] is T1, Taste receptor type 2 member 38 (Homo sapiens) (UniProt P59533).
T1 sequence (whole entry): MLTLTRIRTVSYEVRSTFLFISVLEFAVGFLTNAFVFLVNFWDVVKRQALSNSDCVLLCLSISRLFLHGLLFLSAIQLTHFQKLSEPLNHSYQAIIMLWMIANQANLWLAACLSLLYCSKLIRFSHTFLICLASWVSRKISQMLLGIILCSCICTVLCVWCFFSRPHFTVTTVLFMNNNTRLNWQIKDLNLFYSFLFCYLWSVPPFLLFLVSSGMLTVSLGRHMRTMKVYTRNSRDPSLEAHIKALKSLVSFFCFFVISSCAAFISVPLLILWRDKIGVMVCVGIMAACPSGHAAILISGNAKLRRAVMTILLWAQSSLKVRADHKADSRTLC
In words: Agonist activity at recombinant human N-terminal rat ST3 receptor-fused TAS2R38 expressed in HEK293T cells co-expressing Galpha16gust44 assessed as effect on intracellular calcium level at 100 uM by FLIPR assay.

For assay [4], the target named is T2, Taste receptor type 2 member 50 (Homo sapiens) (UniProt P59544).
T2 sequence (whole entry): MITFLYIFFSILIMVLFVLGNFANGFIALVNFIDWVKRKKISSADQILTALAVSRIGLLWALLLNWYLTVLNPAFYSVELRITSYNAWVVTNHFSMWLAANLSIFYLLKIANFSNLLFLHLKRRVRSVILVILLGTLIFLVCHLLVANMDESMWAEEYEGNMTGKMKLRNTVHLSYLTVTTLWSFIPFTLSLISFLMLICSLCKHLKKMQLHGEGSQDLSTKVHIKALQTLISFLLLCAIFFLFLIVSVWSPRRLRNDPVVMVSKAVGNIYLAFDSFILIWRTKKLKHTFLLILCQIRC
In words: Agonist activity at recombinant human N-terminal rat ST3 receptor-fused TAS2R50 expressed in HEK293T cells co-expressing Galpha16gust44 assessed as effect on intracellular calcium level at 100 uM by FLIPR assay.

In assay [5] the target is T3, Taste receptor type 2 member 3 (Homo sapiens) (UniProt Q9NYW6).
T3 sequence (whole entry): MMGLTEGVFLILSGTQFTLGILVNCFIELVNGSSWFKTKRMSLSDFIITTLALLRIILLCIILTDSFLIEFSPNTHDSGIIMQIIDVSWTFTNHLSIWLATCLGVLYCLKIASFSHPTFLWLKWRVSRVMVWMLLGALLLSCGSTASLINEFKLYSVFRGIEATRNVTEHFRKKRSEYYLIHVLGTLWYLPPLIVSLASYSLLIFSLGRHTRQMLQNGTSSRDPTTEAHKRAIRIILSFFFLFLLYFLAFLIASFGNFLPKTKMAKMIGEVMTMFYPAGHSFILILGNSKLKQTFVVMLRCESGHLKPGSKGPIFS
In words: Agonist activity at recombinant human N-terminal rat ST3 receptor-fused TAS2R3 expressed in HEK293T cells co-expressing Galpha16gust44 assessed as effect on intracellular calcium level at 100 uM by FLIPR assay.

In assay [6] the target is Taste receptor type 2 member 19 (Homo sapiens) (UniProt P59542). Briefly: Agonist activity at recombinant human N-terminal rat ST3 receptor-fused TAS2R48 expressed in HEK293T cells co-expressing Galpha16gust44 assessed as effect on intracellular calcium level at 100 uM by FLIPR assay.
Chain of Taste receptor type 2 member 19 (Homo sapiens) (P59542 whole entry, the tested form may be a part): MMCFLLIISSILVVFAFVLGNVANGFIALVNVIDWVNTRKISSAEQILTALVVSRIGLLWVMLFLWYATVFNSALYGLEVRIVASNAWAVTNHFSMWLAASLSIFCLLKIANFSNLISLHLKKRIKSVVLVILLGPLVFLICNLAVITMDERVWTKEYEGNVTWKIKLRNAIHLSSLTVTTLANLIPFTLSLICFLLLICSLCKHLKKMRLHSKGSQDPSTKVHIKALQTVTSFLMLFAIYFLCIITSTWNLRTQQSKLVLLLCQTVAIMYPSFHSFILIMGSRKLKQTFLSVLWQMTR

Chain of Taste receptor type 2 member 7 (Homo sapiens) (Q9NYW3 whole entry, the tested form may be a part): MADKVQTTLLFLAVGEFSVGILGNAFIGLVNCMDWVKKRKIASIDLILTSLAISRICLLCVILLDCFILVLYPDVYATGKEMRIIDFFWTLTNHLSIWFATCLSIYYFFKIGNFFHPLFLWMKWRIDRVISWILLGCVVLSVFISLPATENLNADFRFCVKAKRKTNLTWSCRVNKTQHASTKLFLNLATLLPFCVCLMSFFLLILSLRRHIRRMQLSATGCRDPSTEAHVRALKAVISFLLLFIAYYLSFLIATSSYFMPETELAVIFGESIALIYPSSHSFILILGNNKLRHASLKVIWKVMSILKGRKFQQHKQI
Chain of Taste receptor type 2 member 5 (Homo sapiens) (Q9NYW4 whole entry, the tested form may be a part): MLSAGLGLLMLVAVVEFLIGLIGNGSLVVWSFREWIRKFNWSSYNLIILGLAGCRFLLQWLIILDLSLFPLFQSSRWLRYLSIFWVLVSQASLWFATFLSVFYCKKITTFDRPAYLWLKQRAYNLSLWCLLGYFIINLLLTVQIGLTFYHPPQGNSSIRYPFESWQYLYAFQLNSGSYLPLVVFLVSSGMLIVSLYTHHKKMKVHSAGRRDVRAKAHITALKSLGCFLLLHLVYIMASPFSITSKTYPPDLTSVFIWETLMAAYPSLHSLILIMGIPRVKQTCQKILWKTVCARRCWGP

With `C/C1=C\C[C@H](O)/C(C)=C/[C@H]2OC(=O)[C@@H](C)C2CC1` (stereo partly specified), the outcome in assay [1] and in assay [2] was Active. Also, the outcome in assay [3], in assay [4], in assay [5] and in assay [6] was inactive.
